This note sets out measurements from paper PMC6262536 (Cells, 2018).

What all share (assay): cells
Experiment [1] has as its system normal murine embryonic fibroblast cell line (BALB/3T3). It is filed as cell-based. Particulars: normal murine fibroblasts BALB/3T3, 72 h, SRB, mean ± SD. From the text:
(§1) The BALB/3T3 cell line was purchased from the American Type Culture Collection (ATCC, Manassas, VA, USA), A549 and MCF-7 cell lines—from European Collection of Authenticated Cell Cultures (Salisbury, UK), LoVo cell line was purchased from the ATCC (ATCC, Manassas, VA, USA), and LoVo/DX by courtesy of Prof. E. Borowski (Technical University of Gdańsk, Gdańsk, Poland). All the cell lines are maintained in the Institute of Immunology and Experimental Therapy (IIET), Wroclaw, Poland. […] Human breast adenocarcinoma cell line was cultured in mixture of Eagle medium (IIET, Wroclaw, Poland), supplemented with 10% fetal bovine serum, 2 mM L-glutamine, 8 μg/mL insulin and 1% amino-acids (Sigma-Aldrich, Merck KGaA, Saint Louis, MO, USA). […] Murine embryonic fibroblast cells were cultured in Dulbecco medium (Life Technologies Limited, Paisley, UK), supplemented with 10% fetal bovine serum (GE Healthcare, Logan, UT, USA) and 2 mM glutamine (Sigma-Aldrich, Merck KGaA, Saint Louis, MO, USA). All culture media contained antibiotics: 100 U/mL penicillin and 100 μg/mL streptomycin (Polfa-Tarchomin, Warsaw, Poland). All cell lines were cultured during entire experiment in humid atmosphere at 37 °C and 5% CO2. […] The procedure is repeated every year or in the case of less frequently used lines: after thawing.
(§2) Twenty-four hours before adding the tested compounds, all cell lines were seeded in 96-well plates (Sarstedt, Nümbrecht, Germany) in appropriate media with 10^4 cells per well. All cell lines were exposed to each tested agent at four different concentrations in the range 100–0.01 μg/mL for 72 h. […] Additionally, all cell lines were exposed to DMSO (solvent used for tested compounds) (POCh, Gliwice, Poland) at concentrations corresponding to those present in tested agents’ dilutions. After 72 h sulforhodamine B assay (SRB) was performed.
(§3) After 72 h of incubation with the tested compounds, cells were fixed in situ by gently adding of 50 μL per well of cold 50% trichloroacetic acid TCA (POCh, Gliwice, Poland) and were incubated at 4 °C for one hour. Following, wells were washed four times with water and air dried. Next, 50 μL of 0.1% solution of sulforhodamine B (Sigma-Aldrich, Merck KGaA, Saint Louis, MO, USA) in 1% acetic acid (POCh, Gliwice, Poland) were added to each well and plates were incubated at room temperature for 0.5 h. After incubation time, unbound dye was removed by washing plates four times with 1% acetic acid whereas stain bound to cells was solubilized with 10 mM Tris base (Sigma-Aldrich, Steinheim, Germany). Absorbance of each solution was read at Synergy H4 Hybrid Multi-Mode Microplate Reader (BioTek Instruments, Inc., Winooski, VT, USA) at the 540 nm wavelength.
(§4) Compounds at each concentration were tested in triplicates in single experiment and each experiment was repeated at least three times independently. The Resistance Index (RI) was defined as the ratio of IC50 for a given compound calculated for resistant cell line to that measured for its parental drug sensitive cell line (Table 1).

Experiment [2] deals with human lung adenocarcinoma (A549). It counts as cell-based. Particulars: A549, 72 h, SRB, mean ± SD.
Text: as §1, §2, §3, §4

The test system of experiment [3] is doxorubicin-resistant subline (LoVo/DX). It counts as cell-based, human. The following applies: 72 h, SRB, mean ± SD.
Text: as §1, §2, §3, §4

Experiment [4] relates to human breast adenocarcinoma (MCF-7). It is filed as cell-based. The following applies: MCF-7, 72 h, SRB, mean ± SD.
Text: as §1, §2, §3, §4

For experiment [5], the system named is human colon adenocarcinoma cell line (LoVo). It is filed as cell-based. The following applies: 72 h, SRB, mean ± SD.
Text: as §1, §2, §3, §4

Turning to `COc1cccc2c1C(=O)c1c(O)c3c(c(O)c1C2=O)C[C@@](O)(C(=O)CO)C[C@@H]3O[C@H]1C[C@H](N)[C@H](O)[C@H](C)O1` [Doxorubicin, reference compound], the 50% inhibitory concentration (IC50) was found to be 166 ± 74 nM in experiment [1] (Mus musculus), 258 ± 44 nM in experiment [2] (Homo sapiens) and 4750 ± 990 nM in experiment [3] (Homo sapiens).
In the case of `COc1c(Cl)c2c(c(OC)c1OC)-c1ccc(OC)c(=O)cc1[C@@H](NC(C)=O)CC2` [Compound 3, 4-chlorocolchicine], the IC50 in experiment [4] (Homo sapiens, MCF7) is 23 ± 5 nM; in experiment [1] (Mus musculus), 138 ± 69 nM; in experiment [5] (Homo sapiens), 69 ± 12 nM; in experiment [2] (Homo sapiens), 46 ± 35 nM; in experiment [3] (Homo sapiens), 784 ± 280 nM.
Turning to `COc1c(I)c2c(c(OC)c1OC)-c1ccc(SC)c(=O)cc1[C@@H](NC(C)=O)CC2` [Compound 8, 4-iodothiocolchicine], the IC50 in experiment [4] (Homo sapiens, MCF7) is 17 ± 6 nM; in experiment [1] (Mus musculus) it was 115 ± 44 nM; in experiment [5] (Homo sapiens) it was 7 ± 2 nM; in experiment [2] (Homo sapiens) it was 11 ± 2 nM; in experiment [3] (Homo sapiens), 642 ± 84 nM.
As for `COc1c(Cl)c2c(c(OC)c1OC)-c1ccc(SC)c(=O)cc1[C@@H](NC(C)=O)CC2` [Compound 4], the IC50 stood at 22 ± 2 nM in experiment [4] (Homo sapiens, MCF7); 22 ± 2 nM in experiment [1] (Mus musculus); 22 ± 2 nM in experiment [5] (Homo sapiens); 22 ± 2 nM in experiment [2] (Homo sapiens); 111 ± 44 nM in experiment [3] (Homo sapiens).
Take `N.N.[Cl][Pt][Cl]` [Cisplatin, reference compound]: the IC50 in experiment [4] was 10700 ± 753 nM; in experiment [1], 3900 ± 1500 nM; in experiment [5], 4370 ± 730 nM; in experiment [2], 6370 ± 1410 nM; in experiment [3], 5700 ± 630 nM.
Consider `COc1c(Br)c2c(c(OC)c1OC)-c1ccc(SC)c(=O)cc1[C@@H](NC(C)=O)CC2` [Compound 6, 4-bromothiocolchine], for which the concentration for half-maximal inhibition (IC50) came to 15 ± 2 nM in experiment [4] (Homo sapiens, MCF7); 103 ± 89 nM in experiment [1] (Mus musculus); 14 ± 4 nM in experiment [5] (Homo sapiens); 10 ± 0.1 nM in experiment [2] (Homo sapiens); 135 ± 12 nM in experiment [3] (Homo sapiens).
Regarding `COc1c(Br)c2c(c(OC)c1OC)-c1ccc(OC)c(=O)cc1[C@@H](NC(C)=O)CC2` [Compound 5, 4-bromocolchicine], the IC50 stood at 27 ± 8 nM in experiment [4] (Homo sapiens, MCF7); 142 ± 73 nM in experiment [1] (Mus musculus); 84 ± 21 nM in experiment [5] (Homo sapiens); 105 ± 8 nM in experiment [2] (Homo sapiens); 1550 ± 170 nM in experiment [3] (Homo sapiens).
On the same counts, the results for `COc1c(I)c2c(c(OC)c1OC)-c1ccc(OC)c(=O)cc1[C@@H](NC(C)=O)CC2` [Compound 7, 4-iodocolchicine] are 98 ± 29 nM, 135 ± 56 nM, 10 ± 2 nM, 94 ± 6 nM and 2780 ± 450 nM.
